Source: patent publication US5609875A, “Skin whitening composition” (Fischer Pharmaceuticals Ltd., priority 1994, dated 1997)

System: tyrosinase
Test: In vitro tyrosinase inhibitory activity, colorimeter comparison at 475 nm
Assay type: biochemical
Excerpt: Test in vitro on the effect of glycolic acid and glycyrrhiza dry extract on tyrosinase inhibitory activity has been carried out based on the Methodology of Maruzene Pharmaceuticals. The anti-tyrosinase activity was investigated by colorimeter comparison at 475 nm and calculated as percentage of the inhibitory activities. (Attached are the results).

O=C(O)CO [Glycolic acid]
% Tyrosinase Inhibition Test 1 (Glycolic acid 0.42 mg/5 ml): 4.86%
% Tyrosinase Inhibition Test 2 (Glycolic acid 0.42 mg/5 ml): 9.12%
% Tyrosinase Inhibition Test 1 (Glycolic acid 0.805 mg/5 ml): 5.64%
% Tyrosinase Inhibition Test 2 (Glycolic acid 0.805 mg/5 ml): 16.11%
% Tyrosinase Inhibition Test 1 (Glycolic acid 1.61 mg/5 ml): 7.60%
% Tyrosinase Inhibition Test 2 (Glycolic acid 1.61 mg/5 ml): 21.32%
% Tyrosinase Inhibition Test 1 (Glycolic acid 7.21 mg/5 ml): 10.74%
% Tyrosinase Inhibition Test 2 (Glycolic acid 7.21 mg/5 ml): 27.81%
